Where a SMILES comes first, the peptide text is derived from it. Where no end group is shown, it is not given here. [ ]: non-standard residue; d: D form. Nle = CCCC[C@H](N)C(=O)O
Experiments:
[1] = target: T1, full-length hGPR116 (HEK293 clone A6) (Homo sapiens, UniProt Q8IZF2); experiment: Calcium transient assay, full-length hGPR116 stably expressed in HEK293 (clone A6); assay type: cell-based; settings: calcium transients, hFL clone A6, Figure 3-figure supplement 2 / Figure 7A
T1 construct: expressed in transfected cells
T1 sequence (Q8IZF2 22-1346): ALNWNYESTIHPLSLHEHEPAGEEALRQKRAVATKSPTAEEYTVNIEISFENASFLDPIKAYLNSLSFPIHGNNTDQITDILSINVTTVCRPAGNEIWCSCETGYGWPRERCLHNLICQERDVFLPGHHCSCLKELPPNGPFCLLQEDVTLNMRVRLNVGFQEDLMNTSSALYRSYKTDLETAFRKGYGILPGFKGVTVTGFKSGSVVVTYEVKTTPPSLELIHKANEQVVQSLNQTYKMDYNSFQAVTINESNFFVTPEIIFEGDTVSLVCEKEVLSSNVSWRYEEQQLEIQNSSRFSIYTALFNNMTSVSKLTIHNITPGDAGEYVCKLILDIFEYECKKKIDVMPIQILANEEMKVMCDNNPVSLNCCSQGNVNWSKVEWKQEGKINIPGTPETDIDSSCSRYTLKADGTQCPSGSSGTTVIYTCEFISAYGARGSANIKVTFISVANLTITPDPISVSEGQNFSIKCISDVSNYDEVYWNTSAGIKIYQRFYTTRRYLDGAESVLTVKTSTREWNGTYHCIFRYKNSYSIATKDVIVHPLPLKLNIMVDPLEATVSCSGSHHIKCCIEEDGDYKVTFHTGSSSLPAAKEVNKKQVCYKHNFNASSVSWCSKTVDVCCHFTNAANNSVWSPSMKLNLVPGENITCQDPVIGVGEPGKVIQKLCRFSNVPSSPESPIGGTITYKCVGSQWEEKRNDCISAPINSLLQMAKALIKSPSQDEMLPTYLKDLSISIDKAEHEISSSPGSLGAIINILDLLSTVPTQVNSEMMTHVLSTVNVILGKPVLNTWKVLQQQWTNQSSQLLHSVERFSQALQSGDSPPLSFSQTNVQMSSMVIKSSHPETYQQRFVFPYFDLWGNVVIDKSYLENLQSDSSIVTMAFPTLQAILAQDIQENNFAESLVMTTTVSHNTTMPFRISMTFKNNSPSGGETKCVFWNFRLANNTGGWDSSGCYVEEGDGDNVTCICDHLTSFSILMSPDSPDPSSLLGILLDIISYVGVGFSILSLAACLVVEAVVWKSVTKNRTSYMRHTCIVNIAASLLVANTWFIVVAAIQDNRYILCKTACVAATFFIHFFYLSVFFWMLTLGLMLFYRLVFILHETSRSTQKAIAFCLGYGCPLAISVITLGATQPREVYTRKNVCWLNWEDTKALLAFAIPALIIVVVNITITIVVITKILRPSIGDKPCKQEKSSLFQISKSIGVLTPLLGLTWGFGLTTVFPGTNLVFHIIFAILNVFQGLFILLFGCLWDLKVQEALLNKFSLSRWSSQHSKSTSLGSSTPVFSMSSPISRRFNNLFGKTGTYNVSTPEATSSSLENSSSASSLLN
Method: (§1) For some constructs, stable populations were generated by treating the cells with G418. After complete selection of resistant cells, these were used in assays. Stable HEK293 clones for full-length hGPR116 (clone A6) and mGPR116 (clone 3C) were described earlier ([Brown et al., 2017]).
(§2) HEK293 cells were seeded in 384-well plates (Greiner, #781946) at 30,000 cells/well. Medium was removed the following day and cells were loaded for 2 hr at 37°C, 5% CO2 with 20 µl Calcium 6 loading buffer (Molecular Devices, Cat# R8191): 1× HBSS (Gibco, Cat# 14065.049) containing 20 mM HEPES (Gibco, Cat#15630) and 2.5 mM probenecid (Sigma, Cat# P8761). Plates were then transferred to a FDSS7000 fluorescence plate reader (HAMAMATSU, Japan) and Ca^2+ responses were measured in real time using a CCD camera with excitation 480 nm/emission 540 nm. Prior to stimulation, baseline measurements were recorded over 5 s (Fmin). For stimulation, 20 µl of test compounds prepared 2× in HBSS containing 20 mM HEPES were dispensed. Fluorescence was read over 1–1.5 min. Maximum fluorescence (Fmax) was determined and normalized to baseline. Data are reported as ∆F/F = (Fmax – Fmin)/Fmin. Adequate response of the endogenous M3R was verified for each transfection, using carbachol at 100 µM and following the same procedure as for the peptide activation.
(§3) Concentration response curves were analyzed using GraphPad Prism 9.2.0. Potency was determined using a nonlinear regression model with variable slope, and statistical significance was determined using a one-way ANOVA followed by Dunnett’s multiple comparison test or a TTEST for comparison of two data sets (*p<0.05, **p<0.01, ***p<0.001, ****p<0.0001, ns, not significant).

hCTFbax G1011K = target: T2, hCTFbax G1011K (Homo sapiens, UniProt Q8IZF2, G1009K); experiment: Calcium transient assay, hCTFbax G1011K; assay type: cell-based; settings: calcium transients, Figure 7C
T2 construct: tethered peptide (993 - 1008); expressed in transfected cells
T2 sequence (Q8IZF2 997-1346 G1009K): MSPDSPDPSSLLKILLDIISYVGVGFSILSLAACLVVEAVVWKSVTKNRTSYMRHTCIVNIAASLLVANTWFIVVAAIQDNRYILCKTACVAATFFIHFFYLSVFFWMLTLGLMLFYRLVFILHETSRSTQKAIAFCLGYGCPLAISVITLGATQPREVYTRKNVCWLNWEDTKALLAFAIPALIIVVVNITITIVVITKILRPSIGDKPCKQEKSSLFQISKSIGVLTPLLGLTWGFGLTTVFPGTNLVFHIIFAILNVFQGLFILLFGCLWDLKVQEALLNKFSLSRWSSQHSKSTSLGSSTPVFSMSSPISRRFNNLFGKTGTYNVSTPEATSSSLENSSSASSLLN
Method: The hCTFbax construct was generated independently of the mCTFbax, using a strategy (Nt deletion) based on emerging knowledge and appropriate for the planned studies, although no difference in functionality is expected between the two approaches. The hCTFbax mBS chimera was derived from this construct by gene synthesis. Other mutants of the human GPR116 CTF or full-length constructs were generated by site-directed mutagenesis using PCR-based techniques.
HEK293 cells were seeded in 384-well plates (Greiner, #781946) at 30,000 cells/well. […] Plates were then transferred to a FDSS7000 fluorescence plate reader (HAMAMATSU, Japan) and Ca^2+ responses were measured in real time using a CCD camera with excitation 480 nm/emission 540 nm. Prior to stimulation, baseline measurements were recorded over 5 s (Fmin). […] Fluorescence was read over 1–1.5 min. Maximum fluorescence (Fmax) was determined and normalized to baseline. […]
as §3

[2] = test system: mCTFbax Y1158A, R1160A, W1165A, L1166A, T1240A; experiment: Calcium transient assay, alanine scan of ECLs in mCTFbax; assay type: cell-based, mouse; settings: transiently transfected HEK293, Figure 4B
Method: Human and mouse GPR116 full-length constructs (hFL and mFL, respectively) have been described earlier, as well as the mouse CTF constructs (mCTF) with N-terminal mCherry or FLAG ([Brown et al., 2017]). […] Mutants of these constructs have been generated by site-directed mutagenesis using PCR-based techniques.
as §2

[3] = target: T3, full-length mGPR116 (HEK293 clone 3C) (Mus musculus, UniProt G5E8Q8); experiment: Calcium transient assay, full-length mGPR116 stably expressed in HEK293 (clone 3C); assay type: cell-based; settings: calcium transient assay, HEK293 clone 3C, Fig 3F
T3 construct: expressed in transfected cells
T3 sequence (G5E8Q8 22-1348): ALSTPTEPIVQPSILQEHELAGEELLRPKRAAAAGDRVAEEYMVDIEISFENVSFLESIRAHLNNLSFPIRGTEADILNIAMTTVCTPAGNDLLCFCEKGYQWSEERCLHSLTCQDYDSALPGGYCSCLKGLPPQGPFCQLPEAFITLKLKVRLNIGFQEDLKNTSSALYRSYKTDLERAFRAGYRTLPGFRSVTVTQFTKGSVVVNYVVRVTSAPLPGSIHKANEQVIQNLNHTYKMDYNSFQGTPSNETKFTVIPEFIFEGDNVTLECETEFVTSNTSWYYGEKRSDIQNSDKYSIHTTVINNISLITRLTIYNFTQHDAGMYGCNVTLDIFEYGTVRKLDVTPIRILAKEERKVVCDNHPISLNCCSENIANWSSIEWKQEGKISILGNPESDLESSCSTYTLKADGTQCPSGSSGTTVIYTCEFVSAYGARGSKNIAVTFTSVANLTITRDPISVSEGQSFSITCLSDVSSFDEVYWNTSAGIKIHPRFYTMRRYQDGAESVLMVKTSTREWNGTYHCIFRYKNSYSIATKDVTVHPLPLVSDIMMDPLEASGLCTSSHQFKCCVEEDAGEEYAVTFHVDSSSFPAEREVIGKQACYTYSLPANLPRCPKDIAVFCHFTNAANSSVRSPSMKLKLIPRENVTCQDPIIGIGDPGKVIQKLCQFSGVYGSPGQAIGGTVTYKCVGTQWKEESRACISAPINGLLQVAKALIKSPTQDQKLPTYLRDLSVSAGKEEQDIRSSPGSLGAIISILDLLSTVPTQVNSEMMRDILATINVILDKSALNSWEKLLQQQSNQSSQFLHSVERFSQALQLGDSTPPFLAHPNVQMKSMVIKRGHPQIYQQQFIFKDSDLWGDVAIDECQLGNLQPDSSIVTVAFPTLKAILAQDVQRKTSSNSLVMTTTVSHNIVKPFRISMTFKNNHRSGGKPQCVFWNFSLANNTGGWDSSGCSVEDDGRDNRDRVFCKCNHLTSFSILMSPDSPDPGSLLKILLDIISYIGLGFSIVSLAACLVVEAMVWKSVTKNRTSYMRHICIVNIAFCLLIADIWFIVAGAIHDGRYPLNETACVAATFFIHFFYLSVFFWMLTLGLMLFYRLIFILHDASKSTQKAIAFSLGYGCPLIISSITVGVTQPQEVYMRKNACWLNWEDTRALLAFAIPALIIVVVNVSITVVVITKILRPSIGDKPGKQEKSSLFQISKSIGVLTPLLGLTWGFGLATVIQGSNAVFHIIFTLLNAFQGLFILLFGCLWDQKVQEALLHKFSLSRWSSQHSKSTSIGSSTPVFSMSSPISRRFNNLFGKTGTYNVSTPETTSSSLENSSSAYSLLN
Method: as §1, §2, §3

[4] = test system: mouse GPR116 CTF (mCTF) single alanine mutants; experiment: IP1 accumulation, mCTF single alanine mutants of the tethered agonist stimulated with exogenous GAP; assay type: cell-based; settings: transiently transfected HEK293, Figure 3E
Method: HEK293 cells were seeded in 12-well plates at a density of 1.5 × 10^5 cells per well and transiently transfected with plasmids expressing wild-type, wild-type mGPR116-FLAG, CTF-FLAG, or alanine mutants of CTF-FLAG. Then, 24 hr post transfection, media were removed and replaced with serum-free Modified Eagles Medium (MEM; Mediatech) containing 1 µCi/ml of 3H-myo-inositol (PerkinElmer Life Sciences). Also, 48 hr […], media were removed and replaced with serum-free media supplemented with 20 mM LiCl for 3 hr. For samples to be stimulated with GAPs, the peptides were added at the appropriate concentration when the media were replaced with that supplemented with LiCl. […] Columns were washed twice with distilled H2O, total inositol phosphates (IP) were eluted with 4.0 ml of 0.1 M formic acid and 1 M ammonium formate, and eluates containing accumulated inositol phosphates were counted in a liquid scintillation counter. Then, 50 μl of neutralized supernatant was counted in a liquid scintillation counter to measure total incorporated 3H-myo-inositol. Data are expressed as accumulated inositol phosphate over total incorporated 3H-myo-inositol. […]
IP1 accumulation was measured using the manufacturer’s instructions (IP-One, Cisbio 62IPAPEC). […] Plates were read at 665 and 620 nm on an EnVision Xcite Multilabel reader (PerkinElmer, # 2104-0020). […]

Row | Compound | activation of the human full-length receptor (in words) [1] | response of hCTFbax G1011K (in words) (hCTFbax G1011K) | activation of mCTFbax ECL alanine mutants (in words) [2] | EC50 (uM) n=1 ([3]; independent experiment n=1 (mean of quadruplicate)) | EC50 (uM) n=2 ([3]; independent experiment n=2 (mean of quadruplicate)) | EC50 (uM) n=3 ([3]; independent experiment n=3 (mean of quadruplicate)) | activation of mCTF single alanine mutants, IP1 accumulation (in words) [4]
1 | CCCC[C@H](NC(=O)[C@H](CC(C)C)NC(=O)[C@@H](NC(=O)[C@H](CO)NC(=O)[C@H](Cc1ccccc1)NC(=O)[C@H](CO)NC(=O)[C@@H]1CCCN1)[C@@H](C)CC)C(=O)N[C@@H](CO)C(=O)N1CCC[C@H]1C(=O)N[C@@H](CC(=O)O)C(=O)O [GAP10-Pro1] (H-PSFSIL[Nle]SPD-OH; N-terminus and C-terminus assumed) | little to no effect | did not robustly respond |  |  |  |  | 
2 | TSFSILMSPDSPDP [GAP14] |  |  | unresponsive to GAP14-mediated activation | 29.9 µM | 26.3 µM | 46.4 µM | strongly activated the mutant receptors
